Data set [1] has as its system monocytes. To be noted: via inhibition of ROS generation; Cell Research 2013, 23:898-914; cited from earlier work.
Data set [2] has as its system mice. Briefly: Toxicology experiment of BHA in mice. The class given is in vivo.
In data set [3] the test system is lung cancer in K-rasLA2 model mice. The note with it: fodder of 0.75% BHA; Cell Research 2013, 23:898-914; cited from earlier work.
Data set [4] has as its system humanized embryonic nephrocyte (HEK293 cell). Briefly: Cytotoxicity, MTS method, HEK293 cell. The class given is cell-based. The note with it: Homo sapiens. The source says:
(§1) The toxicity of compounds is detected with MTS method in the immortalized mice bone marrowmacrophages (IBMM), mice embryonic fibroblast (NIH3t3) and humanized embryonic nephrocyte.

The nature of data set [5]: Acute toxicity in mice, up-down method. The class given is in vivo. To be noted: mouse, in vivo. The method, then: (§2) Detecting the acute toxicity of some of the compounds by using up-down method. Intragastric administrating a drug to the mice of 20˜22 g; lyase is corn oil, fasting for 12 h before administration, with free drinking.
Data set [6] has as its system Her2 breast cancer. Kind of data set: Mice model with Her2 breast cancer. The class given is in vivo.
In data set [7] the test system is immortalized mice bone marrowmacrophages (IBMM). Briefly: Cytotoxicity, MTS method, IBMM cell. The class given is cell-based. The note with it: Mus musculus, Bone marrow macrophage, read-out: IC50(mM) IBMM cell.
Excerpt: as §1

Data set [8] deals with macrophages M2. Briefly: Polarization of macrophages M2. To be noted: FIG. 1.
The subject of data set [9] is mice embryonic fibroblast (NIH3t3). Kind of data set: Cytotoxicity, MTS method, NIH3T3 cell. The note with it: Mus musculus. The class given is cell-based.
Excerpt: as §1
Background: Tetrazolium dyes change colour on reduction, which living cells bring about.

Data set [10] can be described thus: Drug metabolism tests of BHA in vivo. Also on record: species or system mice. To be noted: for half-life: mouse, plasma.
Data set [11] can be described thus: Release experiment of target compound in human plasma. The note with it: 37° C., 5 min to 9 h.
Procedure: Mobile phase: gradient elution; A: water; B: methanol;
Chromatographic column: CAPCEL PAK MF PH-1;
Detecting instrument: TQ-S; ion source: APCI; ion detection mode: MRM;
Dissolving the target compound with DMSO, then diluting to 5 μg/mL with the normal saline of 0.9%. The human blank plasma after subpackage is preserved at −70° C., unfreezing in a refrigerator at 4° C. when used. Take 20 μL of the blank plasma, adding 20 μL of the target compound solution as above formulated, vortexing for 15 s, and left it in the water bath at 37° C. […] Take the supernatant and inject 10 μL for detection.
Data set [12] has as its system mice. Briefly: Acute toxicity in mice, up-down method. The class given is in vivo. The note with it: mice, intragastric. The method, then:
as §2

Setting [13] is: po, mice, intragastric, corn oil, up-down method, unit inferred.
Where [14] appears, read: HEK293, MTS method, read-out: IC50(mM) HEK293 cell.
The mark [15] stands for this setting: NIH3T3, MTS method, read-out: IC50(mM) NIH3T3 cell.

Like-named read-outs stand apart in the source and are kept apart here.

`COc1cc(C(C)=O)ccc1O` [Apocynin]: in data set [1], the “differentiation of monocytes toward M2 macrophages” value (“differentiation” below) was “inhibit differentiation of monocytes toward M2 macrophages”.

In the case of `COc1ccc(O)c(C(C)(C)C)c1` [BHA, 2-tert-butyl-4-methoxyphenol], in [2] (600 mg/kg, recover after half an hour), the toxic signs result was “central effect of partially “hangover” state”. In addition, in data set [2] (1100 mg/kg), the mortality entry is “Half of the mice with 1100 mg/kg are caused to die”. Besides, the “time until symptoms of the toxic reaction disappear in survival mice” value in data set [2] (1100 mg/kg) was in the range of 30 to 60 min. In addition, the “toxic effect, long term dosing” value in data set [2] (low dose, long term dosed for two years) is recorded as “toxic effect is not seen”. Besides, the “generation of lung cancer” value in data set [3] is “completely inhibited”. Moreover, the IC50 in data set [4] (HEK293, read-out: IC50(mM) HEK293 cell) is 0.325 mM; in data set [7], 0.218 mM; in data set [9] (NIH3T3, read-out: IC50(mM) NIH3T3 cell), 0.267 mM. Also, the LD50 came to 1100 mg/kg in data set [5] (oral, acute toxicity in mice, as restated) and 1100 mg/kg in [5] (setting [13]). Moreover, in data set [6] (HER2 mice model, 50-1000 mg/kg BW dosed in portions), the anti-tumor effects entry is “obvious anti-tumor effects”. In addition, in data set [6] (Her2 tumor model with the breast cancer, FIG. 1A), the metastasis in head result is “not observed”. The “differentiation” value in [1] is on record as “inhibit differentiation of monocytes toward M2 macrophages”. Moreover, in data set [8], the “polarization effect of macrophages M2” value was “inhibits the polarization effect of macrophages M2”. Moreover, the half-life is 30 to 60 min in [10] (FIG. 2A and B, read-out: half-life of BHA in vivo); 20 min in data set [10] (mice, oral, read-out: T112 (half-life)). Moreover, in data set [10] (oral), the time to peak amounted to 5 min.

`CC(=O)N[C@@H](CS)C(=O)O` [NAC]: in data set [1], the “differentiation” value is listed as “inhibit differentiation of monocytes toward M2 macrophages”.

Turning to `CC1(C)CCCC(C)(C)N1[O]` [TEMPO], the “differentiation” value in [1] was “inhibit differentiation of monocytes toward M2 macrophages”.

On to `COc1ccc(OC(=O)c2ccccc2)c(C(C)(C)C)c1` [XH2005, 2-tert-butyl-4-methoxyphenol benzoate], for which the IC50 came out at 0.082 mM in data set [4] (setting [14]), 0.439 mM in [7] (MTS method) and 0.0875 mM in data set [9] (setting [15]). The “release of BHA in human plasma” value in [11] is recorded as “releases BHA”.

`COc1ccc(OC(C)=O)c(C(C)(C)C)c1` [XH2006, 2-tert-butyl-4-methoxyphenol acetate]: the IC50 was 0.118 mM in data set [4] (setting [14]), 0.443 mM in data set [7] (MTS method) and 0.021 mM in data set [9] (setting [15]). Moreover, in [5] (setting [13]), the median lethal dose (LD50) is > 1200 mg/kg. Further, the “acute toxicity compared with BHA” value in data set [12] is on record as “lower than that of 2-tert-butyl-4-methoxyphenol-oxyl (BHA)”. For the same compound, in data set [11], the “release of BHA in human plasma” value is on record as “releases BHA”.

`COc1ccc(OC(=O)c2cccnc2)c(C(C)(C)C)c1` [XH2010, 2-tert-butyl-4-methoxyphenol nicotinate]: the 50% inhibitory concentration (IC50) in data set [4] (setting [14]) amounted to 0.207 mM; in data set [7] (MTS method), 0.175 mM; in data set [9] (setting [15]), 0.186 mM. For the same compound, the 50% lethal dose (LD50) in data set [5] (setting [13]) was > 1200 mg/kg. Also, the “acute toxicity compared with BHA” value in [12] was “lower than that of 2-tert-butyl-4-methoxyphenol-oxyl (BHA)”. In addition, the “release of BHA in human plasma” value in [11] is on record as “releases BHA”.

Consider `COc1ccc(OC(=O)c2ccncc2)c(C(C)(C)C)c1` [XH2011, 2-tert-butyl-4-methoxyphenol isonicotinate], for which the IC50 in [4] (setting [14]) was 0.311 mM; in data set [7] (MTS method) it was 0.119 mM; in data set [9] (setting [15]), 0.0326 mM. Also, the 50% lethal dose (LD50) in [5] (setting [13]) was > 1300 mg/kg. Moreover, the “acute toxicity compared with BHA” value in data set [12] was “lower than that of 2-tert-butyl-4-methoxyphenol-oxyl (BHA)”. Moreover, the “release of BHA in human plasma” value in data set [11] is “releases BHA”.

Consider `COc1ccc(OC(=O)C2=CCCCC2)c(C(C)(C)C)c1` [XH2015, 2-tert-butyl-4-methoxyphenol cyclohexenecarboxylate], for which the concentration for half-maximal inhibition (IC50) in data set [4] (setting [14]) worked out at 0.109 mM; in data set [7] (MTS method), 0.147 mM; in data set [9] (setting [15]), 0.194 mM. Also, the “release of BHA in human plasma” value in [11] is on record as “releases BHA”.

Regarding `COc1ccc(OC(=O)Cc2ccc(OC)c(OC)c2)c(C(C)(C)C)c1` [XH2018, (2-tert-butyl-4-methoxyphenol) 3,4-dimethoxyphenylacetate], the IC50 in data set [4] (setting [14]) turned out to be 0.386 mM; in data set [7] (MTS method), 0.13 mM; in [9] (setting [15]) it was 0.333 mM. Also, the “release of BHA in human plasma” value in data set [11] is “releases BHA”.

Consider `CC#CC(=O)Oc1ccc(OC)cc1C(C)(C)C` [XH2019, 2-tert-butyl-4-methoxyphenol butynoate], for which the IC50 in data set [4] (setting [14]) worked out at 0.037 mM; in data set [7] (MTS method) it was 0.024 mM; in data set [9] (setting [15]), 0.0476 mM. Besides, the “release of BHA in human plasma” value in [11] was “releases BHA”.

`COc1ccc(OC(=O)Cc2c[nH]c3ccccc23)c(C(C)(C)C)c1` [XH2023, (2-tert-butyl-4-methoxyphenol) (1H-indole-3-yl)acetate]: the results for the IC50 in [4] (setting [14]), in data set [7] (MTS method) and in [9] (setting [15]) were 0.03 mM, 0.0065 mM and 0.065 mM, respectively. In addition, the “release of BHA in human plasma” value in [11] is listed as “releases BHA”.

With `COc1ccc(OC(=O)c2ccc3ccccc3c2)c(C(C)(C)C)c1` [XH2036-4, (2-tert-butyl-4-methoxyphenol) 2-naphthoate], the 50% inhibitory concentration (IC50) in data set [4] (setting [14]) was found to be 0.253 mM; in data set [7] (MTS method), 0.23 mM; in data set [9] (setting [15]), 0.232 mM. Besides, the “release of BHA in human plasma” value in data set [11] is reported as “releases BHA”.

Turning to `COc1ccc(OC(=O)c2cc3ccccc3[nH]2)c(C(C)(C)C)c1` [XH2038-3, (2-tert-butyl-4-methoxyphenol) 2-indoleformate], the half-maximal inhibitory concentration (IC50) was determined as 0.205 mM in data set [4] (setting [14]), 0.263 mM in data set [7] (MTS method) and 0.517 mM in data set [9] (setting [15]). The “release of BHA in human plasma” value in [11] was “releases BHA”.

As for `COc1ccc(OC(=O)Cc2cccs2)c(C(C)(C)C)c1` [XH2038-5, (2-tert-butyl-4-methoxyphenol) 2-thiopheneacetate], the IC50 turned out to be 0.266 mM in data set [4] (setting [14]), 0.202 mM in data set [7] (MTS method) and 0.146 mM in data set [9] (setting [15]). The “release of BHA in human plasma” value in data set [11] is listed as “releases BHA”.

For `C#CC(=O)Oc1ccc(OC)cc1C(C)(C)C` [XH2039-2, (2-tert-butyl-4-methoxyphenol) propiolate], the figures for the IC50 in [4] (setting [14]), in [7] (MTS method) and in data set [9] (setting [15]) were 0.125 mM, 0.159 mM and 0.248 mM, respectively. Moreover, the “release of BHA in human plasma” value in data set [11] was “releases BHA”.

With `COc1ccc(OC(=O)CC2CCCCC2)c(C(C)(C)C)c1` [XH2039-5, (2-tert-butyl-4-methoxyphenol) cyclohexylacetate], the half-maximal inhibitory concentration (IC50) in data set [4] (setting [14]) amounted to 0.087 mM; in data set [7] (MTS method) it was 0.067 mM; in [9] (setting [15]), 0.106 mM. The “release of BHA in human plasma” value in data set [11] was “releases BHA”.

As to `COc1ccc(OC(=O)C2CCCC2)c(C(C)(C)C)c1` [XH2039-6, (2-tert-butyl-4-methoxyphenol) cyclopentanecarboxylate], the results for the IC50 in [4] (setting [14]), in data set [7] (MTS method) and in data set [9] (setting [15]) were 0.136 mM, 0.171 mM and 0.229 mM, respectively. The “release of BHA in human plasma” value in data set [11] was “releases BHA”.

On to `COc1ccc(OC(=O)CC2CC2)c(C(C)(C)C)c1` [XH2040-2, (2-tert-butyl-4-methoxyphenol) cyclopropylacetate], for which the IC50 in data set [4] (setting [14]) turned out to be 0.237 mM; in data set [7] (MTS method), 0.202 mM; in data set [9] (setting [15]) it was 0.232 mM. The “release of BHA in human plasma” value in data set [11] is listed as “releases BHA”.

Turning to `CCCCCCCC(=O)Oc1ccc(OC)cc1C(C)(C)C` [XH2040-4, (2-tert-butyl-4-methoxyphenol) octanoate], the IC50 in [4] (setting [14]) was 0.283 mM; in data set [7] (MTS method), 0.198 mM; in data set [9] (setting [15]), 0.366 mM. Besides, the “release of BHA in human plasma” value in data set [11] is reported as “releases BHA”.

Take `COc1ccc(OC(=O)Cc2cc(F)c(F)cc2F)c(C(C)(C)C)c1` [XH2041-2, (2-tert-butyl-4-methoxyphenol) 2,4,5-trifluorophenylacetate]: the IC50 in data set [4] (setting [14]) is 0.349 mM; in data set [7] (MTS method), 0.156 mM; in data set [9] (setting [15]) it was 0.26 mM. In addition, the “release of BHA in human plasma” value in data set [11] is given as “releases BHA”.

In the case of `COc1ccc(OC(=O)CC(F)(F)F)c(C(C)(C)C)c1` [XH2044-1, (2-tert-butyl-4-methoxyphenol) 3,3,3-trifluoropropionate], the IC50 in data set [4] (setting [14]) is 0.206 mM; in data set [7] (MTS method), > 0.7 mM; in [9] (setting [15]), 0.353 mM. Besides, the “release of BHA in human plasma” value in [11] was “releases BHA”.

For the compound “(2-tert-butyl-4-methoxyphenol) morpholin-4-yl acetate [XH2044-2]”, the “acute toxicity compared with BHA” value in data set [12] is on record as “lower than that of 2-tert-butyl-4-methoxyphenol-oxyl (BHA)”. Besides, the LD50 in data set [12] (corn oil, up-down method, unit inferred) is > 1300 mg/kg. For the same compound, the “release of BHA in human plasma” value in data set [11] is listed as “releases BHA”.

For orientation: IC50 means the concentration that gives 50% inhibition. Broadly, the LD50 is the dose at which mortality reaches 50%. A high value points to a less toxic substance. The term half-life denotes how long it takes for the measured level to halve.

Source of the values: US10786481B2, “Hydroquinone compounds, preparation methods therefor, and use in anti-tumor or immunomodulation therapy” (Biomedical Analysis Center, Academy of Military Medical …, priority 2016, dated 2020).
